# Data taken from the supplement of paper PMC10307832.
# Legend:
# Experiment in all cases: relative viability (nuclei count vs DMSO), 5 days (fraction); higher = more cells survive
# BMX-IN-1 + Lapatinib = compound: C=CC(=O)Nc1cc(-n2c(=O)ccc3cnc4ccc(-c5ccc(NS(C)(=O)=O)cc5)cc4c32)ccc1C [BMX-IN-1] + CS(=O)(=O)CCNCc1ccc(-c2ccc3ncnc(Nc4ccc(OCc5cccc(F)c5)c(Cl)c4)c3c2)o1 [Lapatinib] (partner 2 µM)
# Method in brief: (§1)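 Lung cancer cell lines were seeded in 1536-well plates and dosed by pin tool the next day, with either a single drug or a fixed anchor-drug dose combined with five library-drug doses (not always all listed) spaced in √10 steps. Five days later, one step fixed the cells and stained their nuclei (final 0.05% Triton X-100, 1% formaldehyde, 1 ug/ml Hoechst), and nuclei were counted on 4× images. Relative viability is the nuclei count in treated wells divided by the count in vehicle wells, and each value is the median of duplicate plates.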
# BMX-IN-1 + Bortezomib = compound: C=CC(=O)Nc1cc(-n2c(=O)ccc3cnc4ccc(-c5ccc(NS(C)(=O)=O)cc5)cc4c32)ccc1C [BMX-IN-1] + CC(C)C[C@H](NC(=O)[C@H](Cc1ccccc1)NC(=O)c1cnccn1)B(O)O [Bortezomib] (partner 0.002 µM)
# Method in brief: as §1
# BMX-IN-1 + Dasatinib = compound: C=CC(=O)Nc1cc(-n2c(=O)ccc3cnc4ccc(-c5ccc(NS(C)(=O)=O)cc5)cc4c32)ccc1C [BMX-IN-1] + Cc1nc(Nc2ncc(C(=O)Nc3c(C)cccc3Cl)s2)cc(N2CCN(CCO)CC2)n1 [Dasatinib] (partner 0.075 µM)
# Method in brief: as §1
# BMX-IN-1 + Foretinib = compound: C=CC(=O)Nc1cc(-n2c(=O)ccc3cnc4ccc(-c5ccc(NS(C)(=O)=O)cc5)cc4c32)ccc1C [BMX-IN-1] + COc1cc2c(Oc3ccc(NC(=O)C4(C(=O)Nc5ccc(F)cc5)CC4)cc3F)ccnc2cc1OCCCN1CCOCC1 [Foretinib] (partner 0.25 µM)
# Method in brief: as §1
Cell Line,relative viability (BMX-IN-1 + Lapatinib; first compound 0.02 µM),relative viability (BMX-IN-1 + Lapatinib; first compound 0.2 µM),relative viability (BMX-IN-1 + Lapatinib; first compound 0.6325 µM),relative viability (BMX-IN-1 + Lapatinib; first compound 2 µM),relative viability (BMX-IN-1 + Bortezomib; first compound 0.02 µM),relative viability (BMX-IN-1 + Bortezomib; first compound 0.2 µM),relative viability (BMX-IN-1 + Bortezomib; first compound 0.6325 µM),relative viability (BMX-IN-1 + Bortezomib; first compound 2 µM),relative viability (BMX-IN-1 + Dasatinib; first compound 0.02 µM),relative viability (BMX-IN-1 + Dasatinib; first compound 0.2 µM),relative viability (BMX-IN-1 + Dasatinib; first compound 0.6325 µM),relative viability (BMX-IN-1 + Dasatinib; first compound 2 µM),relative viability (BMX-IN-1 + Foretinib; first compound 0.02 µM),relative viability (BMX-IN-1 + Foretinib; first compound 0.2 µM),relative viability (BMX-IN-1 + Foretinib; first compound 0.6325 µM),relative viability (BMX-IN-1 + Foretinib; first compound 2 µM)
201T,1.03,1.04,1.05,1.05,1.13,1.07,1.12,1.1,0.659,0.681,0.687,0.567,1.25,1.14,0.912,1.12
A549,1.04,1.47,1.17,1.02,,,,,,,,,1.14,0.971,1.2,0.982
A-427,1.21,0.995,1.17,1.06,1.03,1.06,1.18,0.985,0.731,1.01,0.782,0.664,1.1,1.24,1.02,0.97
ABC-1,1.46,1.23,1.16,1.28,0.34,0.302,0.244,0.306,0.465,0.545,0.598,0.601,1.21,0.999,1.19,0.955
BEN,0.829,0.891,0.729,0.724,0.808,0.95,0.7,0.772,0.308,0.34,0.241,0.295,0.635,0.698,0.619,0.819
CAL-12T,0.692,0.722,0.795,0.613,0.92,0.785,1.17,0.949,0.353,0.444,0.528,0.366,1.28,1.2,1.31,1.1
COR-L23,1.65,1.47,1.17,0.941,1.27,1.54,1.09,1.05,0.523,0.544,0.594,0.528,1.18,1.1,1.19,0.914
COR-L 105,0.327,0.33,0.376,0.371,0.965,0.697,1.03,0.659,0.324,0.297,0.342,0.305,1.12,1.2,1.37,1.17
Calu-6,1,1.44,1.33,1.06,1.03,1.09,1.31,1.07,,,,,0.918,1.07,0.908,0.776
ChaGo-K-1,,,,,1.08,1.1,1.31,1.17,0.63,0.598,0.633,0.561,1.09,0.938,0.821,0.915
EBC-1,0.243,0.181,0.206,0.168,0.574,0.581,0.626,0.598,,,,,0.0974,0.114,0.144,0.101
EKVX,0.208,0.197,0.216,0.189,1.42,1.23,1.11,1.19,0.532,0.474,0.484,0.59,0.784,0.902,0.965,0.893
EMC-BAC-2,0.985,0.997,0.991,0.887,1.15,1.1,1.26,1.1,0.348,0.345,0.326,0.353,1.04,0.984,1.06,0.985
EPLC-272H,1.03,0.929,1.14,1.08,1.28,1.09,0.872,0.887,0.354,0.266,0.393,0.314,0.851,0.759,0.622,0.592
H3255,0.207,0.206,0.207,0.222,0.916,0.466,0.99,0.732,0.363,0.394,0.397,0.33,0.859,0.989,0.925,0.99
HARA,0.997,0.842,1.01,0.69,1.14,1.62,1.16,1.22,0.258,0.305,0.342,0.244,1.43,1.27,0.936,0.799
HCC-15,0.933,0.955,0.985,0.984,1.25,1.06,1.24,1.1,0.662,0.64,0.745,0.64,1.24,1.13,1.11,1.02
HCC-44,1.07,1.28,1.22,1.11,0.902,1.06,1.07,0.957,,,,,,,,
